Assay results: patent US9062088B2, “CDK-inhibiting pyrrolopyrimidine carboxamide derivative or pharmaceutically acceptable salt thereof, and pharmaceutical composition containing the same as active ingredient for preventing or treating hepatocellular carcinoma” (SNU R&DB Foundation, priority 2010, dated 2015)
“And” between values parts separate entries of the source, which are not always exact repeats. Identical values can stand only once.

Key:
SNU-354 cells [1] = assay: Flow cytometry, sub G1 ratio change (Experimental Example 3); format: cell-based, human; conditions: 10 μM, 24 hours, vehicle = 1.0
Method: SNU-354 cells were seeded in a 90 mm dish, to which vehicle and the compounds of Examples 2˜6 were treated at the concentration of 10 μM each for 24 hours. The cells were collected and washed with cold PBS, followed by reaction in 500 μl of cold 70% ethanol at 4° C. for overnight to fix the cells. The cells were washed with 500 μl of PBS three times, followed by reaction with 500 μl of PBS containing 50 μg/mL propidium iodide (P1) and 50 μl of 1 mg/mL RNAse A at room temperature for 30 minutes in the darkness. Fluorescence of the P1 stained cell was measured by using FACS caliber flow cytometer and cell quest program (Becton Dickinson Immunocytometry Systems, CA, USA). Sub G1 ratio changes of SNU-354 cells induced by the compounds were measured by FACS analysis.

[2] = tested on: caspase-3 activity in SNU-354 cells; assay: Measurement of caspase-3 activity (Experimental Example 4); format: cell-based, human; parameters: unit not given here
Method: SNU-354 cells treated with the compounds of Example 1˜Example 6 were lysed with lysis buffer (0.5% triton X-100, 20 mM Tris-HCl (pH 7.5), 2 mM magnesium chloride, 1 mM DTT, 1 mM EGTA, 50 mM β-glycerophosphate, 25 mM sodium fluoride, 1 mM Na3VO4, 2 μg/mL leupeptin, 2 μg/mL pepstatin A, 100 μg/mL phenylmethylsulfonyl fluoride, 1 μg/mL antipain). The protease analysis buffer necessary for the reaction (20 mM HEPES (pH 7.5), 10% glycerol, 2 mM DTT) was mixed with 20 μM Ac-DEVD-AMC (BD Biosciences, CA, USA) and cell lysates, followed by reaction at 37° C. for 1 hour. Upon completion of the reaction, caspase-3 activity was measured at 380 nm of excitation and 460 nm of emission with spectrofluorometer (TECAN, Switzerland) and the results are shown in FIG. 25 and Table 12.

SNU-354 cells [3] = assay: MTT assay, cell viability; format: cell-based; conditions: Homo sapiens, SNU-354, read-out: Cell viability (%)
Method: Cell viability was measured by MTT assay. SNU-354 cells in the log phase of cell growth curve were distributed in a 24-well plate at the density of 2×10^4 cells/well. […] After allowing enough time for reaction, MTT reagent (MTT dissolved in PBS at the concentration of 5 mg/mL) (Sigma-Aldrich, USA) was added to each well, followed by reaction at 37° C. for 3 hours. Then, the supernatant was eliminated and the precipitated formazan crystals were dissolved in dimethyl sulfoxide, followed by measurement of absorbance with ELISA plate reader.

SNU-354 cells [4] = assay: 3H-thymidine incorporation assay; format: cell-based, human; conditions: 18˜24 hours
Method: SNU-354 cells were distributed in a 6-well plate at the density of 5×10^4 cells/well, followed by culture in FBS-free medium for 24 hours. 24 hours later, the medium was replaced with the fresh one supplemented with FBS, the compounds of Examples 1 and 2 at different concentrations and 1 μCi/mL [^3H]dT (GE Healthcare, UK). 18˜24 hours later, the cells were washed with cold PBS and then fixed with cold 5% trichloroacetic acid. DNA was lysed in […] sodium hydroxide at 37° C. for 1 hour. Then, [^3H]dT incorporated during intracellular DNA synthesis was measured by LSC (liquid scintillation counting). Intracellular DNA synthesis measured above was used as index for the evaluation of cell viability.

Cdk7/cyclin H/MAT1 = target: T1, Cdk7/cyclin H/MAT1 (Homo sapiens, UniProt P50613); assay: In vitro kinase assay of Cdk7, RNA Pol II-CTD-GST substrate; format: biochemical; conditions: 0 nM = 100
T1 construct: purchased Upstate
Method: (§1) To kinase assay buffer were added RNA Pol II-CTD-GST protein (Jena Bioscience, Germany) as a substrate, Cdk9/cyclin T1 or Cdk7/cyclin H/MAT1 recombinant protein (Upstate) as an enzyme, 2.5 μCi [γ-32P]ATP, and 100 μM MgAc/ATP. The total reaction volume was adjusted to 50 μl. Kinase assay reaction was induced at 30° C. for 20 minutes. Upon completion of the reaction, electrophoresis was performed on 8% SDS-polyacrylamide gel. The activities of Cdk7 and Cdk9 over the concentrations of the compounds of Example 1 and Example 2 were confirmed by autoradiography and the results are shown in FIG. 5˜FIG. 8 and Table 3.
(§2) The intensity of bands was analyzed by densitometry (GS-800, Bio-Rad).

Cdk9/cyclin T1 = target: T2, Cdk9/cyclin T1 (Homo sapiens, UniProt P50750); assay: In vitro kinase assay of Cdk9, RNA Pol II-CTD-GST substrate; format: biochemical; conditions: 0 nM = 100
T2 construct: purchased Upstate
Method: as §1, §2

Cdk7 = assay: Western blotting of Cdk7 activity (phospho RNA Pol II Ser 5); format: cell-based, human; conditions: 0 nM = 100
Method: (§3) After treating the compound of Example 2 to SNU-354 cells, cell pellet was lysed with lysis buffer (0.5% triton X-100, 20 mM Tris-HCl (pH 7.5), 2 mM magnesium chloride, 1 mM DTT, 1 mM EGTA, 50 mM β-glycerophosphate, 25 mM sodium fluoride, 1 mM Na3VO4, 2 μg/mL leupeptin, 2 μg/mL pepstatin A, 100 μg/mL phenylmethylsulfonyl fluoride, and 1 μg/mL antipain) at 4° C. for 1 hour, followed by quantification of protein. A proper amount of protein was electrophoresed on SDS-PAGE gel and then transferred onto polyvinylidene difluoride membrane (Millipore Co., Bedford, Mass.). The membrane was reacted in inhibiting solution (PBS, 5% skim milk, 0.1% tween-20) at room temperature for 1˜2 hours. The membrane was reacted with the primary antibody (goat anti-phospho-Rb, rabbit anti-nucleolin) diluted in the inhibiting solution (1:1000). Then, the membrane was washed with PBST, followed by reaction with the proper secondary antibody (horseradish peroxidase (HRP) conjugated) at room temperature for 1 hour.
(§4) Experiment was performed by the same manner as described in step 2 of Experimental Example 1 except that rabbit anti-phospho RNA Pol II (Ser 5) and rabbit anti-phospho RNA Pol II (Ser 2) (from Bethyl, TX, USA) were used as primary antibodies. The results are shown FIG. 9˜FIG. 12, and Table 4 and Table 5.

Cdk9 = assay: Western blotting of Cdk9 activity (phospho RNA Pol II Ser 2); format: cell-based, human; conditions: 0 nM = 100
Method: as §3, §4

T2 sequence (P50750 whole entry): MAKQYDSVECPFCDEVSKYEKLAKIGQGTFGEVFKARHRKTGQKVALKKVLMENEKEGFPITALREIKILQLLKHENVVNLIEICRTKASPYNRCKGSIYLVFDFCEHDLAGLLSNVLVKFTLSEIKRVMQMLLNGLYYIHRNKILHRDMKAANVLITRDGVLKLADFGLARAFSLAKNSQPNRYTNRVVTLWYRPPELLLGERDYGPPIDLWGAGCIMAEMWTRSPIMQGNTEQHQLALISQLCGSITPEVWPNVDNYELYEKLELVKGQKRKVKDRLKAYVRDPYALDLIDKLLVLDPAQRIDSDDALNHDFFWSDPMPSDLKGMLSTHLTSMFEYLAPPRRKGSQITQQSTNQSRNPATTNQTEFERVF
T2 sequence (O60563 whole entry partner): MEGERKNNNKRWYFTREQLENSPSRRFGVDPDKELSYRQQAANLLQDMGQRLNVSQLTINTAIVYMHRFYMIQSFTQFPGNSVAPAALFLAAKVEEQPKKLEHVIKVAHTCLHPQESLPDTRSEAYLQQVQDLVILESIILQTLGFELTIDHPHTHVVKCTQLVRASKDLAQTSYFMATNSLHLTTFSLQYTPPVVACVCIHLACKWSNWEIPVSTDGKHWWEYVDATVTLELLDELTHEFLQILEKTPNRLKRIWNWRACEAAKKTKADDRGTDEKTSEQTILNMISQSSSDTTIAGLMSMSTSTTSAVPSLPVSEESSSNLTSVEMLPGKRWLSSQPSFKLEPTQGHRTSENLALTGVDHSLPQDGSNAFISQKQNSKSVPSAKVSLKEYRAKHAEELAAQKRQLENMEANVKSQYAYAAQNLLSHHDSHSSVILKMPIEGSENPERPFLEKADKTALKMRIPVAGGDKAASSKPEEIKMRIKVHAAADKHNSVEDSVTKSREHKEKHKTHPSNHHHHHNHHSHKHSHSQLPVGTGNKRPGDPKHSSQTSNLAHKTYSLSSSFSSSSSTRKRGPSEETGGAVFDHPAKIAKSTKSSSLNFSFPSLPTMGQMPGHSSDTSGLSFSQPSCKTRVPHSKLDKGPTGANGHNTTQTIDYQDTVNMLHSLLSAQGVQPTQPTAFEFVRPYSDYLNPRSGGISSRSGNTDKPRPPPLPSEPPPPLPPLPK
T1 sequence (P50613 whole entry): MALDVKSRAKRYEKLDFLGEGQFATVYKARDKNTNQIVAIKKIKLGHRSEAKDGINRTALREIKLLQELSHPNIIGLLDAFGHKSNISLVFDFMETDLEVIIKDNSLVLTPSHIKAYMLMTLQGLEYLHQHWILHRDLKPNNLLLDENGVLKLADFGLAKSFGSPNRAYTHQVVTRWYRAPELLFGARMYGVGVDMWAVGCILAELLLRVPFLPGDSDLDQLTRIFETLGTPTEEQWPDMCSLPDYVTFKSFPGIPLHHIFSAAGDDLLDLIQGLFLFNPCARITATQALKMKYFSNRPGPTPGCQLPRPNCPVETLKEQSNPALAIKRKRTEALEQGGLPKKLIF
T1 sequence (P51946 whole entry partner): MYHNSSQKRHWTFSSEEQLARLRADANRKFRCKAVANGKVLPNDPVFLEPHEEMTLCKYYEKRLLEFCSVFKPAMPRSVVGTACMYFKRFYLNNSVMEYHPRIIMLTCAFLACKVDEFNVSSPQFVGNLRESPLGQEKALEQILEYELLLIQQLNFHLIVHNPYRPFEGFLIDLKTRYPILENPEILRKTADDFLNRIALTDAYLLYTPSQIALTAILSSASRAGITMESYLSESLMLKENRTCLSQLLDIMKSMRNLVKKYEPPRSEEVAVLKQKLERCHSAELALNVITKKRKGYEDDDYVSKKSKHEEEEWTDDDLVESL
T1 sequence (P51948 whole entry partner): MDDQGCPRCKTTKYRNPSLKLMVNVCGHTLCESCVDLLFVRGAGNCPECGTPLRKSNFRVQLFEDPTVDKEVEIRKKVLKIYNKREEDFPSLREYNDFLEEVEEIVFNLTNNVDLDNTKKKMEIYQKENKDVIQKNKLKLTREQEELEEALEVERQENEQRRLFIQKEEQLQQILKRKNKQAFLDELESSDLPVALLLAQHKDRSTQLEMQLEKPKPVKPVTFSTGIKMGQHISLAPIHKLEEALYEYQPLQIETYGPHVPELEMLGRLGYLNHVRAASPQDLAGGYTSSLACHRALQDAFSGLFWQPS

## CC(C)(C)C(=O)OC[C@@H]1O[C@H](n2cnc(N)c3c(C(N)=O)c(Br)nc2-3)[C@H](O)[C@H]1O [Example 3, ((2S,3R,4R,5S)-5-(4-amino-6-bromo-5-carbamoyl-1H-pyrrolo[2,3-d]pyrimidin-1-yl)-3,4-dihydroxy-tetrahydrofuran-2-yl)methyl pivalate]
SNU-354 cells [1]
  sub G1 ratio change: 5.7
[2]; 5 μM
  Caspase-3 activity: 8.2
[2]; 10 μM
  Caspase-3 activity: 7.8

## CC(=O)O[C@H]1[C@H](OC(C)=O)[C@@H](n2cnc(N)c3c(C(N)=O)c(Br)nc2-3)O[C@H]1COC(=O)C(C)C [Example 4, (2S,3S,4R,5S)-2-(4-amino-6-bromo-5-carbamoyl-1H-pyrrolo[2,3-d]pyrimidin-1-yl)-5-(isobutyryloxymethyl)tetrahydrofuran-3,4-diyl diacetate]
SNU-354 cells [1]
  sub G1 ratio change: 5.5
[2]; 5 μM
  Caspase-3 activity: 5.1
[2]; 10 μM
  Caspase-3 activity: 7.0

## NC(=O)c1c(Br)n([C@H]2O[C@@H](COC(=O)c3ccccc3)[C@@H](O)[C@@H]2O)c2ncnc(N)c12 [Example 5, ((2S,3S,4S,5S)-5-(4-amino-6-bromo-5-carbamoyl-7H-pyrrolo[2,3-d]pyrimidin-7-yl)-3,4-dihydroxytetrahydrofuran-2-yl)methyl benzoate]
SNU-354 cells [1]
  sub G1 ratio change: 5.5 and 6.0
[2]; 5 μM
  Caspase-3 activity: 9.0
[2]; 10 μM
  Caspase-3 activity: 10.3

## CCC(=O)OC[C@@H]1O[C@H](n2c(Br)c(C(N)=O)c3c(N)ncnc32)[C@@H](O)[C@@H]1O [Example 6, ((2S,3S,4S,5S)-5-(4-amino-6-bromo-5-carbamoyl-7H-pyrrolo[2,3-d]pyrimidin-7-yl)-3,4-dihydroxytetrahydrofuran-2-yl)methyl propionate]
SNU-354 cells [1]
  sub G1 ratio change: 5.9
[2]; 5 μM
  Caspase-3 activity: 10.7
[2]; 10 μM
  Caspase-3 activity: 11.7

## Cn1cnc2c(NCc3ccccc3)nc(NCCO)nc21 [Olomoucine, olomoucine, reference compound]
SNU-354 cells [3]
  viability at 0.5 µM: 98.9%
  viability at 1 µM: 99.9%
  viability at 2 µM: 99.9%
  viability at 5 µM: 98.5%
  viability at 10 µM: 101%
  viability at 50 µM: 96%
SNU-354 cells [4]; 5.0 μM
  ^3H-thymidine incorporation (%): 99.7%
SNU-354 cells [4]; 10.0 μM
  ^3H-thymidine incorporation (%): 96.3%
SNU-354 cells [4]; 50.0 μM
  ^3H-thymidine incorporation (%): 77.2%

## CC[C@H](CO)Nc1nc(NCc2ccccc2)c2ncn(C(C)C)c2n1 [Roscosvitine, roscosvitine, reference compound]
Cdk7/cyclin H/MAT1; 10 nM
  Cdk7 activity: 92.0%
Cdk7/cyclin H/MAT1; 100 nM
  Cdk7 activity: 43.4%
Cdk7/cyclin H/MAT1; 1000 nM
  Cdk7 activity: 17.4%
Cdk9/cyclin T1; 10 nM
  Cdk9 activity: 55.6%
Cdk9/cyclin T1; 100 nM
  Cdk9 activity: 44.6%
Cdk9/cyclin T1; 1000 nM
  Cdk9 activity: 42.2%
Cdk7; 0.1 nM
  Cdk7 activity: 96.0%
Cdk7; 0.5 nM
  Cdk7 activity: 73.1%
Cdk7; 1 nM
  Cdk7 activity: 51.5%
Cdk7; 5 nM
  Cdk7 activity: 51.6%
Cdk7; 10 nM
  Cdk7 activity: 49.9%
Cdk7; 50 nM
  Cdk7 activity: 4.0%
Cdk9; 0.1 nM
  Cdk9 activity: 69.3%
Cdk9; 0.5 nM
  Cdk9 activity: 48.5%
Cdk9; 1 nM
  Cdk9 activity: 38.1%
Cdk9; 5 nM
  Cdk9 activity: 35.7%
Cdk9; 10 nM
  Cdk9 activity: 34.6%
Cdk9; 50 nM
  Cdk9 activity: 2.2%
SNU-354 cells [4]; 5.0 μM
  ^3H-thymidine incorporation (%): 98.2%
SNU-354 cells [4]; 10.0 μM
  ^3H-thymidine incorporation (%): 91.0%
SNU-354 cells [4]; 50.0 μM
  ^3H-thymidine incorporation (%): 47.2%
